Assay results taken from US10584317B2 (priority 2006, dated 2020).
Entries after “also recorded” stand apart in the source; their conditions may differ. Where two headings read alike, the source gives them in different places.

Legend:
PANC-1 tumors [1] = format: in vivo, nude mice
GI-101A tumors [2] = tested on: GI-101A tumors; parameters: species or system nude mice; details: mouse, in vivo
PANC-1 tumors [3] = tested on: PANC-1 tumors; parameters: species or system nude mice; details: mouse, in vivo
A549 tumors = tested on: A549 tumors; parameters: species or system nude mice; details: mouse, in vivo
GLV-1h74 = format: cell-based, vaccinia virus
GLV-1h68 = format: cell-based, vaccinia virus
GLV-1h73 = format: cell-based, vaccinia virus
GLV-1h71 = format: cell-based, vaccinia virus
GI-101A tumors [4] = details: mouse, in vivo

N.N.[Cl][Pt][Cl] [Cisplatin, cis-diamminedichloroplatinum]
Effect on tumor growth (PANC-1 tumors [1]; PANC-1): unable to arrest tumor growth
Median tumor volume (PANC-1 tumors [1]; day 36 post-implantation): 170.2 mm^3
Median tumor volume (PANC-1 tumors [1]; day 46): 296.6 mm^3
Median tumor volume (PANC-1 tumors [1]; day 52): 254.95 mm^3
Median tumor volume (PANC-1 tumors [1]; day 57): 326.2 mm^3
Median tumor volume (PANC-1 tumors [1]; day 63): 460.3 mm^3
Median tumor volume (PANC-1 tumors [1]; day 72): 663.4 mm^3
Median tumor volume (PANC-1 tumors [1]; day 79): 1022.0 mm^3
Median tumor volume (PANC-1 tumors [1]; day 86): 1718.3 mm^3
Median tumor volume (PANC-1 tumors [1]; day 94): 2520.4 mm^3
Median tumor volume (PANC-1 tumors [1]; day 100): 3254.1 mm^3
Effect on tumor growth (GI-101A tumors [2]): decreased the rate of tumor growth, but did not shrink tumors

COc1cccc2c1C(=O)c1c(O)c3c(c(O)c1C2=O)C[C@@](O)(C(=O)CO)C[C@@H]3O[C@H]1C[C@H](N)[C@H](O)[C@H](C)O1 [Doxorubicin, doxorubicin]
Effect on tumor growth (GI-101A tumors [2]): did not have any effect on the rate of tumor growth

Nc1ccn([C@@H]2O[C@H](CO)[C@@H](O)C2(F)F)c(=O)n1 [Gemcitabine]
Effect on tumor growth (PANC-1 tumors [3]): moderately decreased tumor growth
Effect on tumor growth (A549 tumors): increased tumor growth

Nc1ccn(C[C@@H](CO)OCP(=O)(O)O)c(=O)n1 [cidofovir]
Number and size of plaques of GLV-1h74 (GLV-1h74): significantly reduced
Plaque formation by GLV-1h74 (GLV-1h74): smaller plaques
Size or number of plaques of GLV-1h74 vs control (GLV-1h74): no significant differences
Plaque formation by GLV-1h68 (GLV-1h68): smaller plaques; also recorded: almost completely inhibited
Size or number of plaques of GLV-1h68 vs control (GLV-1h68): no significant differences
Number and size of plaques of GLV-1h73 (GLV-1h73): significantly reduced
Plaque formation by GLV-1h73 (GLV-1h73): smaller plaques
Size or number of plaques of GLV-1h73 vs control (GLV-1h73): no significant differences
Plaque formation by GLV-1h71 (GLV-1h71): smaller plaques; also recorded: almost completely inhibited
Size or number of plaques of GLV-1h71 vs control (GLV-1h71): no significant differences
Interference with tumor therapy by the virus (GI-101A tumors [4]): did not significantly interfere
Survival time of GLV-1h74 injected mice (GI-101A tumors [4]): significantly extended
